Results published in ChEMBL document CHEMBL3137667, “[Drug-induced liver injury; fourteenth updated edition of the bibliographic database of liver injuries and related drugs]” (Gastroenterol Clin Biol, 2004).

Assays:
[1] = human
[2] = human; remark: listed apart in the source
[3] = human; remark: listed apart in the source
[4] = Highest frequency of acute liver toxicity observed during clinical trials, expressed as a percentage. [column '% AIGUE' in source]; details: human
[5] = Times to onset, minimal and maximal, observed in the indexed observations. [column 'DELAI' in source]; details: human
[6] = human; remark: listed apart in the source
[7] = human, serum
[8] = human; remark: listed apart in the source
[9] = human, serum; remark: listed apart in the source
[10] = Highest frequency of moderate liver toxicity observed during clinical trials, expressed as a percentage. [column '% BIOL' in source]; details: human
[11] = human, serum, 4383 h
[12] = human; remark: listed apart in the source
[13] = human; remark: listed apart in the source
[14] = human; remark: listed apart in the source
[15] = human; remark: listed apart in the source
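For Hepatotoxicity (association with vascular disease) in this document: count of indexed literature references reporting vascular liver injury in humans, e.g. peliosis hepatitis, hepatic veno-occlusive disease or Budd-Chiari syndrome.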
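For Hepatotoxicity (benign tumour) in this document: value is a count of indexed literature references citing a benign tumour confirmed by histopathology.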
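For Hepatotoxicity (choleostasis) in this document: human cholestatic liver injury, shown by histopathology or by peak ALT or AST elevation over alkaline phosphatase ratio below 2, value counts indexed literature reports.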
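For Hepatotoxicity (chronic liver disease) in this document: chronic liver injury confirmed by histopathology or persistently raised serum aminotransferase activity beyond 6 months, value given as the count of indexed literature references.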
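For Hepatotoxicity (cirrhosis) in this document: value is a count of indexed literature references reporting cirrhosis confirmed by histopathology.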
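For Hepatotoxicity (cytolytic) in this document: human cytolytic liver injury, shown by histopathology or by a ratio above 5 of peak ALT or AST elevation to alkaline phosphatase elevation, value counts indexed references.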
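For Hepatotoxicity (granulomatous hepatitis) in this document: value is a count of indexed literature references reporting granulomatous liver disease confirmed by histopathology.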
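For Hepatotoxicity (malignant tumour) in this document: malignant tumour confirmed by histopathology, value gives the count of indexed literature references reporting it.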
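For Hepatotoxicity (severe hepatitis) in this document: human clinical data: severe hepatitis, meaning potentially life-threatening liver failure or clinically observed cases, the value counts how many indexed literature references report it.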
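For Hepatotoxicity (steatosis) in this document: steatosis confirmed by histopathology, value is the count of indexed references.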

Compound | Hepatotoxicity (granulomatous hepatitis) [1] | Hepatotoxicity (steatosis) [2] | Hepatotoxicity (malignant tumour) [3] | Hepatotoxicity (acute) [4] | Hepatotoxicity (time to onset) [5] | Hepatotoxicity (choleostasis) [6] | Hepatotoxicity (moderate) [7] | Hepatotoxicity (association with vascular disease) [8] | Hepatotoxicity (moderate) [10] | Hepatotoxicity (chronic liver disease) [11] | Hepatotoxicity (cytolytic) [12] | Hepatotoxicity (severe hepatitis) [13] | Hepatotoxicity (benign tumour) [14] | Hepatotoxicity (cirrhosis) [15] | further results
NCc1ccccc1CC(=O)N[C@@H]1C(=O)N2C(C(=O)O)=C(CSc3nnnn3CC(=O)O)CS[C@H]12 [CEFORANIDE] | 0 | 0 | 0 | 3.4% | 5 days - 3 weeks | 1 | 6 | 0 | 42.9% | 0 | 2 | 0 | 0 | 0 | Hepatotoxicity (acute) [9]: 2
O=C(NCC1CCCCN1)c1cc(OCC(F)(F)F)ccc1OCC(F)(F)F (stereo not drawn) [FLECAINIDE] | 0 | 0 | 0 | 0% | 2 days - 1 month | 2 | 3 | 0 | 36.7% | 0 | 1 | 0 | 0 | 0 | –
COCc1c(C(C)C)nc(C(C)C)c(/C=C/[C@@H](O)C[C@@H](O)CC(=O)O)c1-c1ccc(F)cc1 [CERIVASTATIN] | 0 | 0 | 0 | – | 3 weeks | 1 | – | 0 | – | 0 | 1 | – | 0 | 0 | –
CC(C(=O)O)c1cccc(C(=O)c2ccccc2)c1 (stereo not drawn) [KETOPROFEN] | 0 | 3 | 0 | 0% | 2 days - 2 weeks | 5 | 3 | 0 | 2.5% | 0 | 3 | 2 | 0 | 0 | –
CC(C)n1c(/C=C/C(O)CC(O)CC(=O)O)c(-c2ccc(F)cc2)c2ccccc21 (stereo not drawn) [FLUVASTATIN] | – | 0 | 0 | – | 8 months | – | 36 | 0 | – | 0 | – | – | 0 | 0 | Hepatotoxicity (granulomatous hepatitis) ([1]; Liver): 0; Hepatotoxicity (acute) ([4]; Liver): 1.2%; Hepatotoxicity (choleostasis) ([6]; Liver): 2; Hepatotoxicity (moderate) ([10]; Liver): 55%; Hepatotoxicity (cytolytic) ([12]; Liver): 3; Hepatotoxicity (severe hepatitis) ([13]; Liver): 0
CN(C)CCCC1(c2ccc(F)cc2)OCc2cc(C#N)ccc21 (stereo not drawn) [CITALOPRAM] | 0 | 0 | 0 | 0% | 4 weeks - 2 months | 1 | 2 | 0 | 5.3% | 0 | 1 | 1 | 0 | 0 | –
Cc1ccc(NC(=O)c2ccc(CN3CCN(C)CC3)cc2)cc1Nc1nccc(-c2cccnc2)n1 [IMATINIB] | 0 | 0 | 0 | – | 11 days - 12 days | 0 | 5 | 0 | – | 0 | 1 | – | 0 | 0 | Hepatotoxicity (moderate) ([10]; Liver): 100%; Hepatotoxicity (severe hepatitis) ([13]; Liver): 1
O=C(O)CCc1nc(-c2ccccc2)c(-c2ccccc2)o1 [OXAPROZIN] | 0 | 0 | 0 | 0.1% | 2 weeks - 6 months | 0 | 4 | 0 | 20% | 0 | 2 | 1 | 0 | 0 | –
COc1cc2c(cc1OC)C(=O)C(CC1CCN(Cc3ccccc3)CC1)C2 (stereo not drawn) [DONEPEZIL] | 0 | 0 | 0 | 0% | 10 days - 12 days | 2 | 0 | – | 0% | 0 | 0 | 0 | 0 | 0 | Hepatotoxicity (acute) [9]: 2
C[C@@H](c1ncncc1F)[C@](O)(Cn1cncn1)c1ccc(F)cc1F [VORICONAZOLE] | 0 | 0 | 0 | 0% | 1 day - 1 year | 1 | 10 | 0 | 9.5% | 0 | 1 | 1 | 0 | 0 | –
Cc1nnc2n1-c1ccc(Cl)cc1C(c1ccccc1Cl)=NC2 [TRIAZOLAM] | 0 | 0 | 0 | – | 4 months | 2 | 1 | 0 | – | 0 | 1 | – | 0 | 0 | Hepatotoxicity (moderate) ([10]; Liver): 0%; Hepatotoxicity (severe hepatitis) ([13]; Liver): 2
COC(=O)C1=C(C)NC(C)=C(C(=O)OCCN(C)Cc2ccccc2)C1c1cccc([N+](=O)[O-])c1 (stereo not drawn) [NICARDIPINE] | 0 | 1 | 0 | 0% | 2 months | 0 | 6 | 0 | 6.7% | 0 | 0 | 0 | 0 | 0 | –
